Experimental data reported in paper PMC7737769, “Pharmacological inhibition of syntenin PDZ2 domain impairs breast cancer cell activities and exosome loading with syndecan and EpCAM cargo” (Journal of Extracellular Vesicles, 2020).

What was measured:
MCF‐7 SyntKO cells = experiment: Wound-healing (migration) assay, MCF-7 SyntKO; type: cell-based; settings: 100 µM, 24 h
Protocol: For migration assays, cells were treated with 1 ng/ml of mitomycin (Sigma M4287) overnight to inhibit cell division. Treated cells were plated in Ibidi culture‐inserts (Ibidi Cat‐80206) for 12 h to reach 90%–95% of confluence with or without compounds (100 µM). A wound was created by removing inserts from the dishes. Medium with or without compounds (100 µM) was refreshed to remove dead cells and the cells were observed under an inverted light microscope (Leica SP2) equipped with a camera. Images were taken by MetaMorph software every 10 min for 24 h. Measurements of cell velocity were calculated using the MetaMorph software.

biotinylated‐GST = experiment: HTRF control with biotinylated-GST (non-specific interference with FRET signal)
Protocol: (§1) HTRF assays were performed in white 96Well Small VolumeHiBase Polystyrene Microplates (Greiner) with a total working volume of […], as described previously (Milhas et al., 2016). Briefly, compounds were firstly dispensed into the wells at 400 µM for the primary screen or with serial DMSO dilutions for IC50 measurement assays. Primary screening assays have been performed in monoplicate while IC50 measurements were performed in triplicates. All HTRF reagents were purchased from CisBio Bioassays and reconstituted according to the supplier protocols. The plates were spun for 3 min at 500 × g and then incubated at 4°C for 16 h. The HTRF signals were recorded on a POLAR star Omega plate reader (BMG Labtech) with an excitation filter at 337 nm and fluorescence wavelength measurement at 620 and 665 nm, an integration delay of 60 µs and an integration time of 400 µs. Results were analysed with a two‐wavelength signal ratio: [intensity (665 nm)/intensity (620 nm)] × 10^4. Percentage of inhibition was calculated using the following equation: % inhibition = [(compound signal)–(min signal)]/[(max signal)–(min signal)] × 100, where ‘max signal’ is the signal ratio with the compound vehicle alone (DMSO) and ‘min signal’ the signal ratio without protein B. For IC50 measurements, values were normalized and fitted with Prism (GraphPad software) using the following equation: Y = 100/(1+((X/ IC50)ˆHill slope)).
(§2) The search strategy for PDZ2 syntenin inhibitors was based on the PDZ targeted library developed from Enamine compound collection. The PDZ targeted library was developed to cover virtually all PDZ domains. Consequently, to create the syntenin PDZ2 focused library we used two independent paths: docking of the PDZ targeted library against structures of syntenin PDZ2 available in Protein Data Bank and a random selection from the PDZ targeted library. The docking has produced 21 virtual hits, which were added to 118 randomly selected compounds (10% of the pan PDZ library). The resultant set of 139 compounds, syntenin PDZ library was subjected to experimental validation. The primary screen was performed at 400µM using a previously validated Homogeneous Time Resolved Fluorescence (HTRF) assay (Milhas et al., 2016). HTRF is based on Fluorescence Resonance Energy Transfer (FRET) between two fluorescent reagents. In the present case, Anti‐GST‐Terbium antibody and streptavidin‐bound Dynamic2 were used as donor and acceptor respectively. Interactions between GST PDZ‐fusion proteins and biotinylated peptides containing PDZ binding motifs were challenged with the potential inhibitors. In parallel, control experiments were performed with a biotinylated‐GST to verify that compounds were not interfering with the FRET signal in a non‐specific manner. To identify inhibitors of syntenin PDZ interactions, we tested for the effect of the 139 compounds on syntenin‐SDC2 and syntenin‐Frizzled7 complexes (Figure 1a; Table S1). When the HTRF signal dropped below 0.9, inhibition was considered as effective. […] Noteworthy, these compounds had no effect on other PDZ complexes like GRASP55‐JAM‐B or GRASP55‐JAM‐C and Erbin‐Erbb2 or Erbin‐P0071 (Figure 1c).

Erbin‐Erbb2 complex = test system: T1, Erbin‐Erbb2 complex; experiment: HTRF assay, Erbin-ERBB2 interaction; type: biochemical, human; settings: 400µM compound; Figure 1c
T1 construct: human Erbin PDZ domain; made in house; host or cells: E. coli BL21 (DE3)
Protocol: as §1, §2

[1] = test system: MCF‐7 cells (exosomal markers); experiment: Western blot of exosomal fractions (exosome cargo); type: cell-based; settings: CAY10594 10 µM, 16 h
Protocol: For comparative analyses, exosome‐enriched fractions were collected from equivalent amounts of culture medium, conditioned by equivalent amounts of cells. MCF‐7 cells were treated with indicated compounds or with DMSO 0.2% as control, in medium containing exosome‐depleted FCS (10%). After 16 h, cell media were collected and exosomes were isolated by three sequential centrifugation steps at 4 °C: 10 min at 500 × g, to remove cells; 30 min at 10,000 × g, to remove cell debris; and 1h30min at 100,000 × g, to pellet exosomes (exosome‐enriched fraction), followed by one wash with 1400 µl of PBS1X (100,000 × g, 1 h), to remove soluble serum and secreted proteins. Exosomal pellets were then re‐suspended in 100 µl of PBS1X. The lysates from corresponding cultures were cleared by centrifugation at 1500 rpm for 5 min and then resuspended in lysis buffer (TrisHCL pH 7.4 30 mM, NaCl 150 mM, 1% NP40 (IGEPAL), 1 µg/ml aprotinin, 1 µg/ml leupeptin). Although only little variations were observed from sample to sample, exosomal amounts loaded for the western blot were normalized according to the number of parent cells from where exosomes were secreted.
The proteins were heat‐denaturated in Laemmli sample buffer, fractionated in 12.5% or 15% gels by SDS–PAGE and electro‐transferred to nitrocellulose membrane. Membranes were stained with Ponceau red and immunoblotted with the indicated primary antibodies for: CD9 (1/5000), CD63 (1/5000), CD81 (1/5000) and ADAM10 (1/1000) antibodies provided by E. Rubinstein (Charrin et al., 2001) (Université Paris‐Sud UMRS_935, Villejuif); syntenin (Homemade (Kashyap et al., 2015); 1/3000), Tubulin (Sigma‐Aldrich; 1/10,000), ALIX (Homemade (Baietti et al., 2012); 1/500), HSP70 (Santa Cruz Biotechnology; 1/500), Flotillin‐1 (BD Biosciences; 1/1000), EGFR (Cell Signaling; 1/1000), EpCAM (Santa Cruz Biotechnology; 1/200), Fibronectin (BD Biosciences; 1/5000), Src (Cell signaling; 1/1000), TSP1 (Lab Vision; 1/100), SDC1 intracellular domain (Homemade (Baietti et al., 2012); 1/1000), SDC4 intracellular domain (Abnova; 1/2000), and HRP‐conjugated secondary antibodies (Mouse or Rabbit, Thermofisher scientific; 1/10,000). Signals were visualized using Amersham ECL Prime Western Blotting Detection Reagent (GE Healthcare).

[2] = Chemical solubility and stability in PBS; type: physicochemical; settings: aqueous buffer; PBS pH 7.4 22°C

| solubility [2] [µg/mL] | Structure (SMILES) | cell migration (wound closure) (MCF‐7 SyntKO cells) | GST-biot (signal ratio) (biotinylated‐GST; 400µM compound, Figure 1c) | effect on control (biotinylated‐GST) FRET signals (biotinylated‐GST; HTRF primary screen, 400µM) | HTRF ASSAY GST-biot (HTRF signal ratio, control) (biotinylated‐GST; primary screen, 400 µM compound, Table S1) | GST-Erbin ERBB2 (signal ratio) (Erbin‐Erbb2 complex) | exosomal ADAM10 signal ([1]; SyntOFF 100 µM) | exosomal CD81 ([1]; SyntOFF 100 µM) | exosomal EGFR signal ([1]; SyntOFF 100 µM) | exosomal TSP1 signal ([1]; SyntOFF 100 µM) | exosomal fibronectin signal ([1]; SyntOFF 100 µM) | incorporation of EpCAM into exosomes ([1]; SyntOFF 100 µM) | incorporation of c‐Src into exosomes ([1]; SyntOFF 100 µM) | amount of exosomal ALIX ([1]; cSyntOFF, C58, SyntOFF 100 µM) | amount of exosomal SDC4 C‐terminal fragment (CTF) ([1]; cSyntOFF, C58, SyntOFF 100 µM) | amount of exosomal syntenin ([1]; cSyntOFF, C58, SyntOFF 100 µM) |
| --- | --- | --- | --- | --- | --- | --- | --- | --- | --- | --- | --- | --- | --- | --- | --- | --- |
|  | CC(C)[C@H](NC(=O)CSc1ccc(Cl)cc1)C(=O)O [Compound C58] | no such effect | 0.92 | no significant effect | 1.01 | 1.01 |  |  |  |  |  |  |  |  |  |  |
| > 2300 | CC(C)[C@H](NC(=O)CCSc1ccc(Cl)cc1)C(=O)O [SyntOFF, (S)‐2‐(3‐(4‐chlorophenylthio)propanamido)‐3‐methylbutanoic acid] |  |  |  |  |  | unaffected | that was not the case | unaffected | unaffected | unaffected | markedly decrease | markedly decrease | significantly decreased | significantly decreased | significantly decreased |
